Assay [1] deals with Human Thrombocytes. The assay is described as follows: Fibrinogen binding to human thrombocytes (fibrinogen binding test). The procedure:
1. Fibrinogen Binding to Human Thrombocytes The blood obtained by puncturing an antecubital vein is anticoagulated with trisodium citrate (final concentration: 13 mM) and centrifuged for 10 minutes at 170× g. The supernatant platelet-rich plasma is poured onto a Sepharose 2B column (Pharmacia) and eluted with a solution of 90 mM common salt, 14 mM trisodium citrate, 5 mM glucose and 50 mM tris(hydroxymethyl)aminomethane, adjusted to pH 7.4. The gel-filtered platelets (GFP) appearing before the plasma proteins are used for the binding experiments. 50 μl of a 60 mM calcium chloride solution, 50 μl of a 0.6 mM adenosine diphosphate solution, 100 μl of substance solution or solvent and 50 μl of fibrinogen solution (containing 3 μg of ^125 fibrinogen) are added to 750 μl of GFP and incubated for 20 minutes at ambient temperature. The non-specific binding is determined in the presence of 3 mg/ml of cold fibrinogen. 900 μl of the incubated material are carefully pipetted onto 250 μl of silicon oil (AP 38: AR 20, 1:2 v/v, Wacker Chemie) in Eppendorf tubes and centrifuged for 2 minutes at 10,000× g. The aqueous supernatant and some of the oil are drawn off, the tips of the tubes are cut off together with the platelet pellet and the quantity of bound fibrinogen is determined in a gamma counter. The concentration of substance which brings about a 50% inhibition in fibrinogen binding is determined from a series of concentrations and is given as the IC50 value. | *^125 I fibrogen was replaced by […] |e.

The subject of assay [2] is platelet aggregation (platelet-rich plasma). The assay is described as follows: Antithrombotic activity: inhibition of collagen-induced platelet aggregation in platelet-rich plasma (Born and Cross). The conditions noted are these: 50% change in optical density, human platelet-rich plasma, 10 min preincubation. In kind it is cell-based, human (healthy volunteers). The procedure:
2. Antithrombotic Activity Method The thrombocyte aggregation is measured using the Born and Cross method (J. Physiol. 170:397 (1964)) in platelet-rich plasma taken from healthy volunteers. To inhibit coagulation the blood is mixed with 3.14% sodium citrate in a ratio by volume of 1:10. Collagen-induced aggregation The pattern of the decrease in optical density of the platelet suspension is photometrically measured and recorded after the addition of aggregation-triggering substance. The rate of aggregation is concluded from the angle of inclination of the density curve. The point on the curve where there is maximum light transmittance is used to calculate the optical density. The amount of collagen used is as small as possible but sufficient to produce an irreversible reaction curve. Standard commercial collagen produced by Hormonchemie of Munich is used. Before the addition of the collagen the plasma is incubated for 10 minutes with the substance at […]. From the measurements obtained an EC50 is determined graphically, indicating a 50% change in the optical density in terms of the inhibition of aggregation.

The mark [3] stands for this setting: *: 125I fibrinogen replaced by 3H-(3S,5S)-5-[(amidino-biphenylyl)-oxymethyl]-carboxymethyl-pyrrolidinone ligand, read-out: Fibrinogen binding test IC50 (values marked *).
[4] abbreviates: 125I fibrinogen, 50% inhibition of fibrinogen binding, gel-filtered human platelets, ADP, 20 min ambient temperature, read-out: Fibrinogen binding test IC50.

Structures can show the parent of a compound that is named as a salt. Where two headings read alike, the source gives them in different places. A value given as a limit tells only on which side of the number the result lay.

In the case of `N=C(N)c1ccc(-c2nc3cc(C(=O)NCCC(=O)O)ccc3n2CCC(c2ccccc2)c2ccccc2)cc1` [17(9), 2-(4-amidino-phenyl)-5-[(2-carboxy-ethyl)-aminocarbonyl]-1-(3,3-diphenyl-propyl)-benzimidazole-dihydrobromide], the IC50 in assay [1] (setting [3]) is 9.5 nM. The response in assay [2] was half-maximal at 1140 nM (EC50).

On to `COC(=O)CCNC(=O)c1ccc2c(c1)nc(-c1ccc(C(=N)N)cc1)n2Cc1ccccc1` [3(48), 2-(4-amidino-phenyl)-1-benzyl-5-[(2-methoxycarbonyl-ethyl)-aminocarbonyl]-benzimidazole-hydrochloride], for which the IC50 in assay [1] (setting [3]) was 7000 nM. The midpoint of the response in assay [2], the EC50, lay at 6400 nM.

For the molecule `CCCCCCCCCCCCCCn1c(-c2ccc(CN)cc2)nc2cc(C(=O)NCCC(=O)O)ccc21` [17(4), 2-(4-aminomethyl-phenyl)-5-[(2-carboxy-ethyl)-aminocarbonyl]-1-n-tetradecyl-benzimidazole-dihydrobromide], in assay [1] (setting [3]), the IC50 is 1900 nM. The molecule also showed a concentration giving a half-maximal response (EC50) in assay [2] greater than 100000 nM.

For the molecule `N=C(N)c1ccc(-c2nc3cc(C(=O)NCCC(=O)O)ccc3n2CCc2cc(Br)c(N)c(Br)c2)cc1` [17(8), 2-(4-amidino-phenyl)-1-[2-(4-amino-3,5-dibromo-phenyl)-ethyl]-5-[(2-carboxy-ethyl)-aminocarbonyl]-benzimidazole-dihydrobromide], in assay [1] (setting [3]), the IC50 is 47 nM. Moreover, in assay [2], the EC50 worked out at 350 nM.

As for `NCCCn1c(-c2ccc(CN)cc2)nc2cc(C(=O)NCCC(=O)O)ccc21` [Example 17, 2-(4-Aminomethyl-phenyl)-1-(3-amino-propyl)-5-[(2-carboxy-ethyl)-aminocarbonyl]-benzimidazole-hydrogen acetate], in assay [1] (setting [4]), the IC50 was determined as 1000 nM. This molecule also displayed an EC50 in assay [2] of 3800 nM.

For the molecule `N=C(N)c1ccc(-c2nc3cc(C(=O)NCCC(=O)O)ccc3n2CCCN2CCS(=O)(=O)CC2)cc1` [1(75), 2-(4-amidino-phenyl)-5-[(2-carboxy-ethyl)-aminocarbonyl]-1-[3-(S,S-dioxido-thiomorpholino)-propyl]-benzimidazole], the IC50 in assay [1] (setting [3]) came to 230 nM. For the same molecule, in assay [2], the EC50 amounted to 1100 nM.

`N=C(N)c1ccc(-c2nc3cc(C(=O)NCCC(=O)OC4CCCCC4)ccc3n2CCCCc2ccccc2)cc1` [13(3), 2-(4-amidino-phenyl)-5-[(2-cyclohexyloxycarbonyl-ethyl)-aminocarbonyl]-1-(4-phenyl-butyl)-benzimidazole dihydrochloride]: the IC50 in assay [1] (setting [3]) is 1400 nM. In assay [2], this molecule yielded an EC50 of 4300 nM.

Consider `COC(=O)CCNC(=O)c1cc2nc(-c3ccc(C(=N)N)cc3)n(C)c2cc1N(C)CC(=O)OC` [3(124), 2-(4-amidino-phenyl)-5-[(2-methoxycarbonyl-ethyl)-aminocarbonyl]-6-(N-methoxycarbonylmethyl-methylamino)-1-methyl-benzimidazole-hydrochloride], for which the IC50 in assay [1] (setting [3]) is 17000 nM. The EC50 in assay [2] worked out at 2800 nM.

For `COC(=O)CCNC(=O)c1ccc2c(c1)nc(-c1ccc(C(=N)N)cc1)n2Cc1cccnc1` [3(52), 2-(4-amidino-phenyl)-5-[(2-methoxycarbonyl-ethyl)-aminocarbonyl]-1-(3-pyridylmethyl)-benzimidazole], the IC50 in assay [1] (setting [3]) came to 4800 nM. The molecule also gave an EC50 in assay [2] of 9500 nM.

For `N=C(N)c1ccc(-c2nc3cc(C(=O)NCCC(=O)O)ccc3n2CCCCc2ccccc2)cc1` [17(7), 2-(4-amidino-phenyl)-5-[(2-carboxy-ethyl)-aminocarbonyl]-1-(4-phenyl-butyl)-benzimidazole-dihydrobromide], in assay [1] (setting [3]), the IC50 worked out at 5.4 nM. The same molecule yielded an EC50 in assay [2] of 290 nM.

In the case of `N=C(N)c1ccc(-c2nc3cc(C(=O)NCCC(=O)O)ccc3n2Cc2cccnc2)cc1` [17(3), 2-(4-amidino-phenyl)-5-[(2-carboxy-ethyl)-aminocarbonyl]-1-(3-pyridylmethyl)-benzimidazole-dihydrobromide], in assay [1] (setting [3]), the IC50 was found to be 170 nM. This molecule returned an EC50 in assay [2] of 430 nM.

Take `COC(=O)CCNC(=O)c1ccc2c(c1)nc(-c1ccc(C(=N)N)cc1)n2CCCN1CCS(=O)(=O)CC1` [5(6), 2-(4-amidino-phenyl)-1-[3-(S,S-dioxido-thiomorpholino)-propyl]-5-[(2-methoxycarbonyl-ethyl)-aminocarbonyl]-benzimidazole-hydrochloride]: the IC50 in assay [1] (setting [3]) is 5500 nM. Moreover, in assay [2], the EC50 is 18000 nM.

On to `COC(=O)CCNC(=O)c1ccc2c(c1)nc(-c1ccc(C(=N)N)cc1)n2CCc1cc(Br)c(N)c(Br)c1` [3(125), 2-(4-amidino-phenyl)-1-[2-(4-amino-3f5-dibromo-phenyl)-ethyl]-5-[(2-methoxycarbonyl-ethyl)-aminocarbonyl]-benzimidazole], for which the IC50 in assay [1] (setting [4]) amounted to 2000 nM. In addition, a half-maximal effect in assay [2] (EC50) was put at 250 nM.

In the case of `CNc1cc2c(cc1C(=O)NCCC(=O)O)nc(-c1ccc(C(=N)N)cc1)n2C` [1(139), 2-(4-amidino-phenyl)-5-[(2-carboxy-ethyl)-aminocarbonyl]-1-methyl-6-methylamino-benzimidazole], the IC50 in assay [1] (setting [3]) was 410 nM. In assay [2], this molecule yielded an EC50 of 1500 nM.

As for `Cn1c(-c2ccc(C(=N)N)cc2)nc2cc(C(=O)NCCC(=O)O)cnc21` [17(13), 2-(4-amidino-phenyl)-6-[(2-carboxy-ethyl)-aminocarbonyl]-3-methyl-imidazo[4,5-b]pyridine-dihydrobromide], the IC50 in assay [1] (setting [3]) came out at 20 nM. This molecule also showed an EC50 in assay [2] of 40 nM.

Turning to `CNc1cc2c(cc1C(=O)NCCC(=O)OC)nc(-c1ccc(C(=N)N)cc1)n2C` [3(123), 2-(4-amidino-phenyl)-5-[(2-methoxycarbonyl-ethyl)-aminocarbonyl]-1-methyl-6-methylamino-benzimidazole-hydrochloride-hydrogen acetate], the IC50 in assay [1] (setting [3]) is 25000 nM. This molecule came in with an EC50 in assay [2] of 12000 nM.

In the case of `Cn1c(-c2ccc(C(=N)N)cc2)nc2cc(C(=O)NCCCC(=O)O)ccc21` [Example 1, 2-(4-Amidino-phenyl)-5-[(3-carboxy-propyl)-aminocarbonyl]-1-methyl-benzimidazole], in assay [1] (setting [4]), the IC50 was found to be 33000 nM. The EC50 in assay [2] was 27000 nM.

Consider `N=C(N)c1ccc(-c2nc3cc(C(=O)NCCC(=O)O)ccc3n2CCN2CCNCC2)cc1` [Example 15, 2-(4-Amidino-phenyl)-5-[(2-carboxy-ethyl)-aminocarbonyl]-1-(2-piperazino-ethyl)-benzimidazole-hydrogen acetate], for which the IC50 in assay [1] (setting [4]) was determined as 28 nM. In assay [2], this molecule gave an EC50 of 40 nM.

Take `Cn1c(-c2ccc(C(=N)N)cc2)nc2cc(C(=O)N3CCCC(C(=O)O)C3)ccc21` (stereo not drawn) [17(10), 2-(4-amidino-phenyl)-5-[(3-carboxy-piperidino)-carbonyl]-1-methyl-benzimidazole-dihydrobromide]: the IC50 in assay [1] (setting [4]) was found to be 26000 nM. In assay [2], this molecule came in with an EC50 of 27000 nM.

With `COC(=O)CCNC(=O)c1ccc2c(c1)nc(-c1ccc(C(=N)N)cc1)n2CCC(c1ccccc1)c1ccccc1` [3(126), 2-(4-amidino-phenyl)-1-(3,3-diphenyl-propyl)-5-[(2-methoxycarbonyl-ethyl)-aminocarbonyl]-benzimidazole], in assay [1] (setting [4]), the IC50 stood at 2200 nM. Also, in assay [2], the EC50 was 9900 nM.

Regarding `COC(=O)CCNC(=O)c1ccc2c(c1)nc(-c1ccc(CN)cc1)n2CCCN` [Example 6, 2-(4-Aminomethyl-phenyl)-1-(3-amino-propyl)-5-[(2-methoxycarbonyl-ethyl)-aminocarbonyl]-benzimidazole], the half-maximal inhibitory concentration (IC50) in assay [1] (setting [4]) was determined as 4000 nM. The EC50 in assay [2] worked out at 3700 nM.

Regarding `N=C(N)c1ccc(-c2nc3cc(C(=O)NCCC(=O)O)ccc3n2CCN2CCN(Cc3ccccc3)CC2)cc1` [1(136), 2-(4-amidino-phenyl)-1-[2-(4-benzyl-piperazino)-ethyl]-5-[(2-carboxy-ethyl)-aminocarbonyl]-benzimidazole], the IC50 in assay [1] (setting [4]) came to 30 nM. In assay [2], this molecule showed an EC50 of 80 nM.

Consider `CCCCCCCCCCCCCCn1c(-c2ccc(C(=N)N)cc2)nc2cc(C(=O)NCCC(=O)O)ccc21` [17(6), 2-(4-amidino-phenyl)-5-[(2-carboxy-ethyl)-aminocarbonyl]-1-n-tetradecyl-benzimidazole-dihydrobromide], for which the 50% inhibitory concentration (IC50) in assay [1] (setting [3]) was found to be 1800 nM. This molecule also gave an EC50 in assay [2] of 30000 nM.

Consider `N=C(N)c1ccc(-c2nc3cc(C(=O)NCCC(=O)O)ccc3[nH]2)cc1` [1(2), 2-(4-amidino-phenyl)-5(6)-[(2-carboxy-ethyl)-aminocarbonyl]-benzimidazole-hydrochloride], for which the IC50 in assay [1] (setting [3]) turned out to be 720 nM. Besides, in assay [2], the half-maximal effective concentration (EC50) came to 3300 nM.

The values above are taken from patent publication US5434150A, “Condensed 5-membered heterocyclic compounds, processes for preparing them and pharmaceutical preparations containing these compounds” (Dr. Karl Thomae GmbH, priority 1991, dated 1995).
